In patent publication US10054581B1, “Inhibitors of notch signaling pathway and use thereof in treatment of cancers” (Ecole Polytechnique Federale de Lausanne (EPFL), priority 2011, dated 2018):
“Also recorded” adds a separate entry of the source.

Legend:
KOPTK1 = test: Alamar blue proliferation assay, KOPTK1; type: cell-based, human; settings: 10 μM, up to 6 days
Method: (§1) Human T-ALL cell lines RPMI 8402 and KOPTK1, and pancreatic cancer cell line PANC1 as well as nRas driven melanoma cells were seeded in a 96 well plate and treated with 10 μM concentration of 6-(4-Tert-Butylphenoxy)Pyridin-3-Amine (I3) and DAPT for several days. Their growth inhibitory effects were compared with cells treated with equal amount of DMSO. Using Alamar blue assay, the growth kinetics of RPMI 8402 and KOPTK1 were followed for upto 6 days, while PANC1 and nRas melanoma cells were monitored for 4 days. 6-(4-Tert-Butylphenoxy)Pyridin-3-Amine (I3) treatment of RPMI 8402, KOPTK1. […] Statistical analyses were done using student's t.test. *=p value<0.05. ns=not significant.
(§2) Alamarblue® proliferation assays were performed to determine the growth kinetics of Notch inhibitor treated cells. Alamar Blue® consists of a cell permeable substrate resazurin. In metabolically active and proliferating cells, resazurin is converted to resorufin due to an intrinsic reducing power of live cells and produces a red fluorescence. Therefore production of resorufin serves as an indicator of the viability of the cell population.
(§3) Proliferation assays were performed by seeding 5000 cells/well in a 96 well plate. Cells were treated with DMSO or Notch inhibitors for different time intervals. […] Alamarblue readout was taken using Tecan F500 (Tecan) multiplate reader. […]

DND41-Parental cell line = test: Alamar blue proliferation assay, DND41-Parental; type: cell-based, human; settings: over 5 days
Method: FIGS. 5A-5E show 6-(4-Tert-Butylphenoxy)Pyridin-3-Amine (I3) blocks NICD dependent growth of human cancer cells. […] Western blot analyses were carried out for Hes1 protein using Hes1 specific antibodies. […] Growth kinetics of the parental cell line was followed over 5 days using Alamar blue readout. […] This mutation renders this cell line insensitive to γ-secretase inhibitor treatment. […] The cells were treated with DMSO, γ-secretase inhibitor DAPT and I3 for 6 days. Alamar blue readout was taken at day 0, day 2, day 4 and day 6. Eight replicates were used for each treatment and time point. […] P values were calculated using Student's t.test. *=p value<0.05. ns=not significant.
Alamarblue® proliferation assays were performed to determine the growth kinetics of Notch inhibitor treated cells. […] In metabolically active and proliferating cells, resazurin is converted to resorufin due to an intrinsic reducing power of live cells and produces a red fluorescence. […]
Proliferation assays were performed by seeding 5000 cells/well in a 96 well plate. […] Alamarblue readout was taken using Tecan F500 (Tecan) multiplate reader.
6-(4-Tert-Butylphenoxy)Pyridin-3-Amine (I3) can block NICD mediated activation of the Notch pathway (FIGS. 1A-D). […] In addition, these two cell lines were also monitored over several days for anti-proliferative effects of 6-(4-Tert-Butylphenoxy)Pyridin-3-Amine (I3) and DAPT.

PANC1 = test: Alamar blue proliferation assay, PANC1; type: cell-based, human; settings: 10 μM, 4 days
Method: as §1, §2, §3

HPB ALL leukemic cells = test: HPB ALL xenotransplantation in NOD/SCID γc−/− mice; type: in vivo, human; settings: 25 mg/kg daily from around day 15, imaged day 27
Method: FIGS. 8A-8B show 6-(4-Tert-Butylphenoxy)Pyridin-3-Amine (I3) treatment increases latency of leukemia development in mice. […] On day 15, leukemic cells were established in the bone marrow. Mice were treated with oil or 6-(4-Tert-Butylphenoxy)Pyridin-3-Amine (I3) for every day. Mice were imaged on day 27 using Caliper IVIS (Xenogen) live imaging system. Red and blue colour indicates the intensity of luciferase signal and correlates with the number of leukemic cells. […] NOD/SCID γc^−/− mice were transplanted with 5×10^5 RPMI 8402 (luciferase expressing) cells. Leukemia development was followed using Caliper IVIS (Xenogen) live imaging system. On day […], a daily treatment was started using oil (n=3) or 6-(4-Tert-Butylphenoxy)Pyridin-3-Amine (I3) (n=4). Animals were treated for 27 days (end point of the experiment).
The human leukemic cell lines RPMI 8402 and HPB ALL were transduced with a lentivirus containing luciferase gene constitutively expressed downstream of a CMV promoter. […] Mice were monitored for tumor development using Caliper IVIS (Xenogen) live imaging system. […]
This allowed Applicants to visualize and monitor the leukemia progression in the mice using the Caliper IVIS (Xenogen) live imaging detection system. […] Mice were monitored for leukemia development by detecting luciferase expressing leukemic cells. […]

Row | Compound | proliferation (Alamar blue) (KOPTK1) | proliferation (Alamar blue) (DND41-Parental cell line) | proliferation (Alamar blue) (PANC1) | leukemia progression (luciferase live imaging) (HPB ALL leukemic cells)
1 | C[C@H](NC(=O)Cc1cc(F)cc(F)c1)C(=O)N[C@H](C(=O)OC(C)(C)C)c1ccccc1 [DAPT, N—[N-(3,5-difluorophenacetyl-Lalanyl)]-(S)-phenylglycine t-butyl ester, reference compound] | induced a significant proliferation block | caused a significant proliferative block; also recorded: caused a proliferation arrest | induced a significant proliferation block | 
2 | CC(C)(C)c1ccc(Oc2ccc(N)cn2)cc1 [I3, 6-(4-Tert-Butylphenoxy)Pyridin-3-Amine] | induced a significant proliferation block; also recorded: caused a significant reduction in their growth potential | caused a significant proliferative block; also recorded: caused a proliferation arrest | induced a significant proliferation block; also recorded: caused a significant reduction in their growth potential | did not progress at the same rate as in the oil treated group
